Organism: Rattus norvegicus
Assay: DrugMatrix - Regimen: Daily Repeat
Assay type: toxicity, organism-based, Sprague-Dawley
Design: regimen Daily Repeat, gender Male, age 6-8 weeks
Settings: in vivo, po, route oral GAVAGE, vehicle .5 % CMC; for ABSOLUTE BASOPHIL / ABSOLUTE EOSINOPHIL / ABSOLUTE LYMPHOCYTE / ABSOLUTE MONOCYTE / ABSOLUTE SEGMENTED NEUTROPHIL / BASOPHIL / EOSINOPHIL / ERYTHROCYTE COUNT / HEMATOCRIT / HEMOGLOBIN / LEUKOCYTE COUNT / LYMPHOCYTE / MEAN CORPUSCULAR HEMOGLOBIN / MEAN CORPUSCULAR HEMOGLOBIN CONCENTRATION / MEAN CORPUSCULAR VOLUME / MONOCYTE / NEUTROPHIL / NUCLEATED RED BLOOD CELLS / PLATELET COUNT: tissue Blood; for ALANINE AMINOTRANSFERASE / ALBUMIN / ALKALINE PHOSPHATASE / ASPARTATE AMINOTRANSFERASE / BLOOD UREA NITROGEN / CARBON DIOXIDE / CHLORIDE / CHOLESTEROL / CREATINE PHOSPHOKINASE / CREATININE / GLUCOSE / LACTATE DEHYDROGENASE / LIPASE / PHOSPHORUS / POTASSIUM / SODIUM / TOTAL BILIRUBIN / TOTAL PROTEIN / URIC ACID: tissue Plasma
[1] = 0 mg/kg, 72 h, dose level Control, time 3 day
[2] = 0 mg/kg, 120 h, dose level Control, time 5 day
[3] = 50 mg/kg, 72 h, dose level Low, time 3 day

Compound: CC(=O)O[C@]1(C(C)=O)CC[C@H]2[C@@H]3C=C(Cl)C4=CC(=O)[C@@H]5C[C@@H]5[C@]4(C)[C@H]3CC[C@@]21C [CYPROTERONE ACETATE]
- ABSOLUTE BASOPHIL [1]: 0 CELLS/uL
- ABSOLUTE EOSINOPHIL [1]: 0 CELLS/uL
- ABSOLUTE LYMPHOCYTE [1]: 12191.17 CELLS/uL
- ABSOLUTE MONOCYTE [1]: 183.17 CELLS/uL
- ABSOLUTE SEGMENTED NEUTROPHIL [1]: 1192.33 CELLS/uL
- BASOPHIL [1]: 0%
- EOSINOPHIL [1]: 0%
- ERYTHROCYTE COUNT [1]: 5.51 x10E6/uL
- HEMATOCRIT [1]: 35.45%
- HEMOGLOBIN [1]: 13.82 G/DL
- LEUKOCYTE COUNT [1]: 13.57 x10E3/uL
- LYMPHOCYTE [1]: 89.83%
- MEAN CORPUSCULAR HEMOGLOBIN [1]: 25.1 pg
- MEAN CORPUSCULAR HEMOGLOBIN CONCENTRATION [1]: 38.98 G/DL
- MEAN CORPUSCULAR VOLUME [1]: 64.42 fL
- MONOCYTE [1]: 1.33%
- NEUTROPHIL [1]: 8.83%
- NUCLEATED RED BLOOD CELLS [1]: 0 /100WBC
- PLATELET COUNT [1]: 1118.17 x10E3/uL
- ALANINE AMINOTRANSFERASE [1]: 55 u/L
- ALBUMIN [1]: 4.15 G/DL
- ALKALINE PHOSPHATASE [1]: 449.5 u/L
- ASPARTATE AMINOTRANSFERASE [1]: 112.83 u/L
- BLOOD UREA NITROGEN [1]: 17.33 mg/dL
- CARBON DIOXIDE [1]: 29.5 mmol/L
- CHLORIDE [1]: 101 MEQ/L
- CHOLESTEROL [1]: 70 mg/dL
- CREATINE PHOSPHOKINASE [1]: 1325.83 u/L
- CREATININE [1]: 0.18 mg/dL
- GLUCOSE [1]: 171.5 mg/dL
- LACTATE DEHYDROGENASE [1]: 386 u/L
- LIPASE [1]: 10 u/L
- PHOSPHORUS [1]: 11.57 mg/dL
- POTASSIUM [1]: 6.21 MEQ/L
- SODIUM [1]: 141.65 MEQ/L
- TOTAL BILIRUBIN [1]: 0.15 mg/dL
- TOTAL PROTEIN [1]: 5.75 G/DL
- URIC ACID [1]: 1.28 mg/dL
- ABSOLUTE BASOPHIL [2]: 0 CELLS/uL
- ABSOLUTE EOSINOPHIL [2]: 138.17 CELLS/uL
- ABSOLUTE LYMPHOCYTE [2]: 13283.17 CELLS/uL
- ABSOLUTE MONOCYTE [2]: 303.83 CELLS/uL
- ABSOLUTE SEGMENTED NEUTROPHIL [2]: 1308.17 CELLS/uL
- BASOPHIL [2]: 0%
- EOSINOPHIL [2]: 1%
- ERYTHROCYTE COUNT [2]: 5.32 x10E6/uL
- HEMATOCRIT [2]: 33.8%
- HEMOGLOBIN [2]: 13.63 G/DL
- LEUKOCYTE COUNT [2]: 15.03 x10E3/uL
- LYMPHOCYTE [2]: 88.33%
- MEAN CORPUSCULAR HEMOGLOBIN [2]: 25.68 pg
- MEAN CORPUSCULAR HEMOGLOBIN CONCENTRATION [2]: 40.35 G/DL
- MEAN CORPUSCULAR VOLUME [2]: 63.67 fL
- MONOCYTE [2]: 1.83%
- NEUTROPHIL [2]: 8.83%
- NUCLEATED RED BLOOD CELLS [2]: 0 /100WBC
- PLATELET COUNT [2]: 1097.5 x10E3/uL
- ALANINE AMINOTRANSFERASE [2]: 54.5 u/L
- ALBUMIN [2]: 4.27 G/DL
- ALKALINE PHOSPHATASE [2]: 337 u/L
- ASPARTATE AMINOTRANSFERASE [2]: 94.67 u/L
- BLOOD UREA NITROGEN [2]: 17 mg/dL
- CARBON DIOXIDE [2]: 28.33 mmol/L
- CHLORIDE [2]: 101.5 MEQ/L
- CHOLESTEROL [2]: 71.33 mg/dL
- CREATINE PHOSPHOKINASE [2]: 628.17 u/L
- CREATININE [2]: 0.19 mg/dL
- GLUCOSE [2]: 177.83 mg/dL
- LACTATE DEHYDROGENASE [2]: 500.5 u/L
- LIPASE [2]: 9.5 u/L
- PHOSPHORUS [2]: 12.3 mg/dL
- POTASSIUM [2]: 5.63 MEQ/L
- SODIUM [2]: 143.03 MEQ/L
- TOTAL BILIRUBIN [2]: 0.2 mg/dL
- TOTAL PROTEIN [2]: 6.02 G/DL
- URIC ACID [2]: 1.5 mg/dL
- ABSOLUTE BASOPHIL [3]: 0 CELLS/uL
- ABSOLUTE EOSINOPHIL [3]: 48.33 CELLS/uL
- ABSOLUTE LYMPHOCYTE [3]: 14035.67 CELLS/uL
- ABSOLUTE MONOCYTE [3]: 48.33 CELLS/uL
- ABSOLUTE SEGMENTED NEUTROPHIL [3]: 1667.67 CELLS/uL
- BASOPHIL [3]: 0%
- EOSINOPHIL [3]: 0.33%
- ERYTHROCYTE COUNT [3]: 5.31 x10E6/uL
- HEMATOCRIT [3]: 35.1%
- HEMOGLOBIN [3]: 13.77 G/DL
- LEUKOCYTE COUNT [3]: 15.8 x10E3/uL
- LYMPHOCYTE [3]: 88.67%
- MEAN CORPUSCULAR HEMOGLOBIN [3]: 25.93 pg
- MEAN CORPUSCULAR HEMOGLOBIN CONCENTRATION [3]: 39.23 G/DL
- MEAN CORPUSCULAR VOLUME [3]: 66.13 fL
- MONOCYTE [3]: 0.33%
- NEUTROPHIL [3]: 10.67%
- NUCLEATED RED BLOOD CELLS [3]: 0 /100WBC
- PLATELET COUNT [3]: 1211 x10E3/uL
- ALANINE AMINOTRANSFERASE [3]: 71.67 u/L
- ALBUMIN [3]: 4.43 G/DL
- ALKALINE PHOSPHATASE [3]: 396.67 u/L
- ASPARTATE AMINOTRANSFERASE [3]: 84.67 u/L
- BLOOD UREA NITROGEN [3]: 21.67 mg/dL
- CARBON DIOXIDE [3]: 28 mmol/L
- CHLORIDE [3]: 100.67 MEQ/L
- CHOLESTEROL [3]: 88.33 mg/dL
- CREATINE PHOSPHOKINASE [3]: 202.33 u/L
- CREATININE [3]: 0.15 mg/dL
- GLUCOSE [3]: 155.67 mg/dL
- LACTATE DEHYDROGENASE [3]: 202 u/L
- LIPASE [3]: 10.67 u/L
- PHOSPHORUS [3]: 11.13 mg/dL
- POTASSIUM [3]: 6.55 MEQ/L
- SODIUM [3]: 141.9 MEQ/L
- TOTAL BILIRUBIN [3]: 0.13 mg/dL
- TOTAL PROTEIN [3]: 6.27 G/DL
- URIC ACID [3]: 1.47 mg/dL

Source: ChEMBL document CHEMBL3885881, “DrugMatrix”
